Test results as given in US20220249680A1, “ANTIBODY-ALK5 INHIBITOR CONJUGATES AND THEIR USES” (Synthis Therapeutics, Inc., priority 2019, published 2022).

Key:
[1] = test system: primary mouse CD4+ T cells; assay: MTS proliferation assay, TGF-β1 treated primary mouse CD4+ T cells; format: cell-based
Method: Compounds A-D were tested to determine whether they could inhibit TGF-β signaling in primary mouse CD4^+ T cells.
Primary mouse CD4^+ T cells were isolated from the spleens of C57/B6 mice using the RoboSep™ cell isolation system (Stemcell Technologies). 0.5 μg/ml of hamster anti-mouse CD3e antibody (145-2C11; eBioscience) was coated onto a 96 well flat bottom plate overnight. 1×10^5 purified CD4^+ T cells were incubated with 1 μg/ml soluble hamster anti-mouse CD28 antibody (37.51, BD Biosciences), 1 nM TGF-β1 and 8-fold serial dilutions of Compounds A-D. After 72 hours, cell proliferation was measured using an MTS assay (Promega) in accordance with the manufacturer's instructions.

ALK5 = target: T1, ALK5 (Homo sapiens, UniProt P36897); assay: recombinant kinase assays (IC50 and Ki); format: biochemical; conditions: Compound C versus Compound N
T1 sequence (P36897 34-503): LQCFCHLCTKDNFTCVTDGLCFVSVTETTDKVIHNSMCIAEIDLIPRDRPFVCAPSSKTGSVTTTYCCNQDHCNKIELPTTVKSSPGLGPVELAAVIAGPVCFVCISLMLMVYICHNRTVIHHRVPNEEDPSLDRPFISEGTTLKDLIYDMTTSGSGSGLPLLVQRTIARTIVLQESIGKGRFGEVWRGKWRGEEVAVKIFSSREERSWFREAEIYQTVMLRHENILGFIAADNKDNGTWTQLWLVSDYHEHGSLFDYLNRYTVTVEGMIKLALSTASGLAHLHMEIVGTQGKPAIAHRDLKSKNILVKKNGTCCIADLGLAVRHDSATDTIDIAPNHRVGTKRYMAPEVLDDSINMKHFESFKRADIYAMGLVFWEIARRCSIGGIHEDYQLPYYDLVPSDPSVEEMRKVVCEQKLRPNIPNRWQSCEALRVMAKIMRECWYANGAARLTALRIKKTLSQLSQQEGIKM
Text: Compound N was compared to Compound C in a number of in vitro assays.

[2] = test system: CMV responsive human PBMCs; assay: Cytokine secretion assay (IFN-γ) with CMV antigens; format: cell-based; conditions: 1 nM TGF-β, 1 ng/ml each agent, 48 hours
Method: In a 96-well round bottom plate, 1.5×10^5 CMV responsive human PBMCs (Astarte Biologics) were cultured with 1.5 μg/ml CMV antigens (Astarte Biologics) in serum free medium for 48 hours alone or in the presence of (i) 1 nM TGF-β, (ii) 1 nM TGF-β and T3A #5 at 1 ng/ml, (iii) 1 nM TGF-β and pembrolizumab at 1 ng/ml, (iv) 1 nM TGF-β, T3A #5 at 1 ng/ml, and pembrolizumab at 1 ng/ml, or (v) 1 nM TGF-β and isotype control antibody (negative control). IFN-γ levels were measured in the supernatants using a R&D ELISA kit.

Compound	Experiment 1 IC50 (nM) ([1]; 1 nM TGF-β1, 72 hours)	reversal of TGFβ-mediated inhibition of T cell proliferation ([1]; in words)	other results
Cc1cccc(-c2nc(N)sc2-c2ccc3ncccc3n2)n1 [Compound A, 4-(6-methylpyridin-2-yl)-5-(1,5-naphthyridin-2-yl)-1,3-thiazol-2-amine]	Value not obtained	did not show consistent effects	–
CNCCOc1ccc(-c2cc(-c3c[nH]nc3-c3ccccn3)ccn2)cc1 [Compound B, N-methyl-2-(4-{4-[3-(pyridin-2-yl)-1H-pyrazol-4-yl]pyridin-2-yl}phenoxy)ethan-1-amine]	–	reversed TGFβ-mediated inhibition of T cell proliferation	–
CNCCOc1ccc(-c2cc(-c3c[nH]nc3-c3cccc(C)n3)ccn2)cc1 [Compound C, N-methyl-2-(4-{4-[3-(6-methylpyridin-2-yl)-1H-pyrazol-4-yl]pyridin-2-yl}phenoxy)ethan-1-amine]	–	reversed TGFβ-mediated inhibition of T cell proliferation	potency relative to Compound N in the recombinant assays (ALK5): 10 fold
CCNC(=O)c1ccc2c(c1)NC(=O)/C2=C(\Nc1ccc(N(CCNC)S(C)(=O)=O)cc1)c1ccccc1 [Compound D, (Z)-N-ethyl-3-(((4-(N-(2-(methylamino)ethyl)methylsulfonamido)phenyl)amino)(phenyl)methylene)-2-oxoindoline-6-carboxamide]	Value not obtained	–	Experiment 2 IC50 (nM) ([1]; Experiment 2, 1 nM TGF-β1, 72 hours): Value not obtained; IC50 value in mouse CD4+ T cells ([1]; two different experiments, in words): not obtained
pembrolizumab: T cell checkpoint inhibitor (anti-PD1, Merck)	–	–	IFN-γ levels [2]: increase IFN-γ levels
